According to patent US10828372B2, “Compositions and methods for the inhibition of fibrosis” (WISCONSIN ALUMNI RESEARCH FOUNDATION, priority 2017, dated 2020):
Like-named read-outs stand apart in the source and are kept apart here. Where no end group is shown, it is not given here.

Experiments:
breast cancer = experiment: Murine models of breast cancer; details: mouse, in vivo
[1] = system: EDA-containing fibronectin; experiment: Endogenous (cellular) fibronectin assembly assay, human proximal tubular epithelial cells (HK-2); assay type: cell-based; details: doses up to 500 nM; for IC50: endogenous EDA+-fibronectin, human proximal tubular epithelial cells, read-out: IC50 of fibronectin assembly inhibition
EDA-containing fibronectin, sequence (P02751 32-608 limits assumed): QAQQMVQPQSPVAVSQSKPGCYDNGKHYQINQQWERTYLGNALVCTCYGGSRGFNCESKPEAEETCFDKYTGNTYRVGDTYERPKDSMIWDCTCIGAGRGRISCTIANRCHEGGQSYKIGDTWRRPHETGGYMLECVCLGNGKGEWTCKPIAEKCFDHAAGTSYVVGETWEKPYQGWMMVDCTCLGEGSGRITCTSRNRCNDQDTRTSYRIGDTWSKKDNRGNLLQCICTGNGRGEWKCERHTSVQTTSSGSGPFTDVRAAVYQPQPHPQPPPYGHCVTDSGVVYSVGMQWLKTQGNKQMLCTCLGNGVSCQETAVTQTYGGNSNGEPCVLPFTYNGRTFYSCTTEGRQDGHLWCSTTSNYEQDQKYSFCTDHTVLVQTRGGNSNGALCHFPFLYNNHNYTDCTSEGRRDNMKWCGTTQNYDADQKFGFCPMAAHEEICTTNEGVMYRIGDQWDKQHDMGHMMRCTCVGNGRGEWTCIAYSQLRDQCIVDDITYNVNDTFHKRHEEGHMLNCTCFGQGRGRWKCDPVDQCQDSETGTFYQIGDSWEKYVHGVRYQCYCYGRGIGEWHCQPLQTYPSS
Description: (§1) Endogenous (cellular) fibronectin assembly assay: This immunochemical assay measures the ECM incorporation of EDA-containing fibronectin synthesized by human fibroblasts and human proximal tubular epithelial cells. Human proximal epithelial cells, HK-2 cells, were obtained from ATCC (CRL-2190). The EDA+ fibronectin is a splice variant synthesized and secreted by a variety of cells mostly during embryonic development and during wound healing, ECM remodeling, or fibrotic conditions in the adult. Fibroblasts (AH1F) were cultured in DMEM (Gibco) containing 10% fetal calf serum, and human proximal tubular epithelial cells (HK-2) were cultured in keratinocyte serum free medium (KSFM, containing pituitary extract and rEGF, Invitrogen/Thermo Fisher). Both media also contained 2.5 mM glutamine, 100 IU/ml penicillin, and 100 μg/ml streptomycin. Confluent cells were trypsinized and resuspended in DMEM containing 2% FCS in DMEM for AH1F cells or KSFM for HK-2 cells, at densities that allow delivery of 60,000 AH1F or 20,000 HK-2 cells in 90 μl per well in black-walled, flat transparent bottom 96-well plates. Cells were incubated for 2 h at 37° C. with 5% CO2 and checked microscopically for spreading and confluence. Peptides were then added in 10 μl volumes at 10-fold the desired final concentration. Cell monolayers in microplates were incubated overnight in a humidified 37° C., 5% CO2 chamber. After approximately 22 h, 10 μl of AlamarBlue® was added to the cell monolayers and incubated at 37° C. for 2 h to assess cell viability. Fluorescence of AlamarBlue® was read at 555 nm excitation and 585 nm emission. Microplates were washed twice with HBSS containing Ca^2+, Mg^2+ and 50 μl/well of 4% paraformaldehyde (PFA) in PBS was then added for 10 min at room temperature. […] Similar to the measurement of exogenous A488-FN fluorescence, A488-EDA fluorescence was read using microplate reader equipped with bottom-readout capabilities at 485 nm excitation and 525 nm emission. Fluorescence of wells to which A488-IgG was added, i.e., background green fluorescence from non-specific IgG binding and from the cell monolayer was subtracted from fluorescence values of wells incubated with A488-EDA. Data is presented for fibronectin fibrillogenesis or cell viability as percent of fluorescence values (AlexaFluor® 488 fluorescence or AlamarBlue®, respectively) for wells with no peptides.
(§2) To determine whether PEG-FUD retained its ability to inhibit fibronectin fibrillogenesis, PEG-FUD and FUD were compared in cell-based fibronectin matrix assembly assays. The ability of PEG-FUD to inhibit the incorporation of exogenous fibronectin derived from plasma and also of fibronectin endogenously produced by the cultured cells was measured, since fibrosis is likely to contain fibronectin from both sources. […]

[2] = system: EDA-containing fibronectin; experiment: Endogenous (cellular) fibronectin assembly assay, human fibroblasts (AH1F); assay type: cell-based; details: doses up to 500 nM; for IC50: endogenous EDA+-fibronectin, human fibroblasts, read-out: IC50 of fibronectin assembly inhibition
Description: as §1, §2

[3] = system: AlexaFluor 488-plasma fibronectin (A488-FN); experiment: Microtiter exogenous plasma fibronectin matrix assembly assay (AH1F fibroblasts); assay type: cell-based, human; details: for inhibition of fibronectin fibrillogenesis: concentrations up to 20 μM
AlexaFluor 488-plasma fibronectin (A488-FN), sequence (P02751 32-608 limits assumed): as above
Description: Microtiter fibronectin matrix assembly assays: Exogenous plasma fibronectin matrix assembly assay: Binding and incorporation of AlexaFluor® 488-plasma fibronectin (A488-FN) to fibroblast monolayers (human foreskin fibroblasts, AH1F cells was carried out using methods known in the art. Briefly, fibroblasts (60000 per well) were allowed to adhere and spread for 2 hours in microtiter plates in 2% fetal calf serum (FCS)-containing DMEM. Peptides or modulators to be tested were added followed by 28 nM A488-FN. Cell monolayers with or without peptides and A488FN were incubated overnight at 37° C. with 5% CO2. Cell monolayers in microwells were washed with PBS or HBSS containing Ca^2+, Mg^2+. Fluorescence in 96-well plates was read using a microplate reader using bottom-readout capabilities at 485 nm excitation and 525 nm emission with 20 nm bandwidths. To estimate cell viability per well after the washes and measurement of fluorescence, an equal volume of luminescence reagent (Cell Titer-Glo®) was added followed by quantification of luminescence. Fluorescence of wells to which A488FN had not been added, i.e. intrinsic fluorescence of the cell monolayer was subtracted from fluorescence values of wells containing ligand. Data is presented respectively for fibronectin fibrillogenesis or cell viability as percent of fluorescence or luminescence values for wells with no peptides. Microplate microscopy was used to ascertain that fluorescence measurements correspond to fibrillary fibronectin.
To determine whether PEG-FUD retained its ability to inhibit fibronectin fibrillogenesis, PEG-FUD and FUD were compared in cell-based fibronectin matrix assembly assays. The ability of PEG-FUD to inhibit the incorporation of exogenous fibronectin derived from plasma and also of fibronectin endogenously produced by the cultured cells was measured, since fibrosis is likely to contain fibronectin from both sources. Shown in FIG. 12 is the level of fibrils formed from exogenously added A488-FN fibrils in the presence of increasing amounts FUD or PEG-FUD. FIGS. 13 and 14 show endogenous EDA+-fibronectin fibrillogenesis in human fibroblast and human proximal tubular epithelial cells, respectively. In all fluorescence panels, it is evident that PEG-FUD is as efficient as FUD at inhibiting fibronectin assembly dose-dependently with an IC50 of approximately 30 nM. As previously reported, cell viability is negligibly affected by FUD, and PEG-FUD behaves almost identically. There was an approximately 20% decrease in fibroblast viability at the highest concentration of FUD tested (500 nM) with PEG-FUD retaining fibroblast viability almost at 100%. […] Human proximal tubular epithelial cell viability was retained at approximately 100% with treatment by both FUD and PEG-FUD.
Having established the suitability of PEG-FUD as inhibitor of FN fibrillogenesis, a mutated form of FUD, mFUD, was tested as a control peptide. mFUD was PEGylated as described above and the conjugate tested in the exogenous A488-FN binding assay as described for FIG. 1A. […] A maximum concentration of 20 μM was tested because it approximates the concentration used in vivo, both in this study and in the liver fibrosis study.

[4] = exogenous A488-FN, doses up to 20 μM, read-out: IC50 of fibrillogenesis inhibition
[5] = exogenous A488-plasma fibronectin, human fibroblasts, doses up to 500 nM, read-out: IC50 of fibronectin assembly inhibition

Row | Substance | effect on tumor volume (breast cancer) | inhibition of fibronectin assembly by proximal tubular epithelial cells [1] | IC50 [1] | inhibition of assembly of cellular fibronectin by fibroblasts [2] | IC50 [2] | inhibition of assembly of plasma fibronectin by fibroblasts ([3]; doses up to 500 nM) | inhibition of fibronectin fibrillogenesis ([3]; exogenous A488-FN) | IC50 [3, 4] | IC50 [3, 5]
1 | PEG-FUD: PEGylated FUD prepared as in Example 1, PEG size not stated; approximately 27 kDa by mass spectrometry, likely the 20 kDa conjugate (KDQSPLAGESGETEYITEVYGNQQNPVDIDKKLPNETGFSGNMVETEDT; not fully specified (N-terminus); also: PEG size not given here) | inhibit tumor volume | 50% | ~0.03 µM | 70% | ~0.03 µM | 70% | 60% | 0.025 to 0.03 µM | ~0.03 µM
2 | FUD: 49 amino acid FUD peptide, SEQ ID NO: 1, recombinantly expressed, His-tag removed; inhibitor of fibronectin fibrillogenesis (KDQSPLAGESGETEYITEVYGNQQNPVDIDKKLPNETGFSGNMVETEDT; human) [reference compound] | inhibit tumor volume | 50% | ~0.03 µM | 70% | ~0.03 µM | 70% | 60% | 0.025 to 0.03 µM | ~0.03 µM
